Test results as given in patent US5792635A, “Method of inhibiting the sodium/proton exchanger NHE3 and method of inhibiting growth by administering squalamine” (priority 1995, dated 1998).
Values after ≈ are worked out from the molar mass of the structure shown. “Also recorded” adds a separate entry of the source.

What was measured:
[1] = test system: human microvascular cells; test: Inhibition of endothelial cell cord formation in vitro; format: cell-based; details: for minimal effective concentration: Homo sapiens, Endothelial cell, Table II, read-out: Minimum Effective Concentration, Cord Formation
Source text: Endothelial cells have the capacity in vitro to form tubular aggregates resembling capillaries in various early stages of formation. This conversion occurs under relatively specific conditions, in which essential growth factors along with an effective substratum are provided. It has been shown that both the interaction of growth factors with the endothelial cell and its attachment to a substratum activate the NHE. The activation of this exchanger is believed to be required for subsequent morphologic transformation of the endothelial cell into a multicellular tubular structure.
To assess the effect of compounds on the cord-like structures formed by human microvascular cells when plated in the presence of VEGF (Vascular Endothelial Growth Factor) and basic fibroblast growth factor on a collagen matrix, a standard cord formation assay was used.

Xenopus tadpoles = test: Tadpole assay
[2] = test system: vitelline capillaries of 3- to 5-day chick embryo; test: Chick embryo vitelline capillary regression assay; format: in vivo; design: key to vascular reactivity: +: Vascular reactivity; 0: No vascular reactivity; +/-: Equivocal reactivity; details: for vascular reactivity: 60 minutes
Experimental: (§1) Using the chick embryo vitelline capillaries assay, compounds were tested for their ability to induce capillary regression. Each compound was applied in 0.1 ml of 15% Ficol 400 and PBS onto the embryo, and vascular regression was assessed after 60 minutes.
The 3-day chick embryo consists of an embryonic disc from which numerous vessels emerge and return, forming a "figure 8"-shaped structure--the embryo in the center with vascular loops extending outward over both poles. […] Following a lag period of around 15 minutes, the constriction of continuity between capillary and secondary vessels, generally on the "venous" side, was observed. Continued pulsatile blood flow progressed, resulting in a "swelling" of the blind tube, followed by a pinching off of the remaining connection and formation of an enclosed vascular sac resembling a "blood island." This process progressed until only the largest vessels remained intact.

HM = HM MTT assay (Table II); format: cell-based; details: read-out: Minimum Effective Concentration, HM MTT assay
S. aureus = test: Antibiotic activity, MIC; format: cell-based; details: Staphylococcus aureus
C. albicans = test: Antibiotic activity, MIC; format: cell-based; details: Candida albicans
P. = test: Antibiotic activity, MIC; format: cell-based; details: read-out: MIC Values
E. Coli = test: Antibiotic activity, MIC; format: cell-based; details: Escherichia coli
chick embryo = test: Chick embryo diss. assay (Table II); format: in vivo
Experimental: as §1

LLC = LLC MTT assay (Table II); format: cell-based; details: Lewis lung carcinoma, read-out: Minimum Effective Concentration, LLC MTT
[3] = test system: L1210 lymphoblastic leukemia cells; test: Mouse model of leukemia (L1210), survival and hematological profile; details: L1210-inoculated mice
Source text: C57B mice were inoculated with L1210 lymphoblastic leukemia cells at an inoculum that causes leukemia in 100% of animals.

SMILES: C[C@H](CCC(=O)O)[C@H]1CC[C@H]2[C@@H]3[C@H](O)C[C@@H]4C[C@H](NCCCNCCCCNCCCN)CC[C@]4(C)[C@H]3CC[C@]12C [Compound 412]
- endothelial cord formation ([1]; 10.0 μg/ml): +
- functional similarity in tadpole assay (Xenopus tadpoles; Xenopus tadpole assay): pharmacologic activity similar to that seen for FX 3

SMILES: C[C@H](CCC(=O)O)[C@H]1CC[C@H]2[C@@H]3[C@H](O)C[C@@H]4C[C@H](NCCN)CC[C@]4(C)[C@H]3CC[C@]12C [Compound 414]
- vascular reactivity ([2]; 1 μg applied): 0
- functional similarity in tadpole assay (Xenopus tadpoles; Xenopus tadpole assay): pharmacologic activity similar to Fraction 1
- potency in tadpole assay relative to Fraction 1 (Xenopus tadpoles; Xenopus tadpole assay): potencies comparable to that of Fraction 1

SMILES: COC(=O)CC[C@@H](C)[C@H]1CC[C@H]2[C@@H]3[C@H](O)C[C@@H]4C[C@@H](NCCN)CC[C@]4(C)[C@H]3CC[C@]12C [Compound 409]
- vascular reactivity ([2]; 1 μg applied): 0
- functional similarity in tadpole assay (Xenopus tadpoles; Xenopus tadpole assay): functionally similar to compound 1437

SMILES: CC(COS(=O)(=O)O)C(=O)CC[C@@H](C)[C@H]1CC[C@H]2[C@@H]3[C@H](O)C[C@H]4C[C@@H](NCCCNCCCCN)CC[C@]4(C)[C@H]3CC[C@]12C (single isomer, unassigned) [Compound 1360]
- effect on chick embryo blood ([2]; within 20 minutes): the blood circulating through the embryonic vessels exhibited a brighter red color
- observed response in tadpole (Xenopus tadpoles; 10 μg/ml, stage 59-60 Xenopus): Swelling and lysis of certain erythrocytes occurred; also recorded: Subsequent tissue breakdown occurred in areas of tail surrounding these nuclear plugs; also recorded: extensive vasocclusion occurred within 60 minutes throughout the tail

SMILES: COC(=O)CCC(C)[C@H]1CCC2C3CC[C@@H]4C[C@H](NCCN)CC[C@]4(C)C3C[C@H](O)[C@@]21C (stereo partly drawn) [drawing 114]
- minimal effective concentration (HM): 2.4 µg/mL

SMILES: CC(C)CCC[C@@H](C)[C@H]1CC[C@H]2[C@@H]3CC[C@H]4C[C@H](NCCCCN)CC[C@]4(C)[C@H]3CC[C@]12C
- MIC (S. aureus): 4 µg/mL (≈ 8.72 µM)
- MIC (C. albicans): 64 µg/mL (≈ 139 µM)
- MIC (P.): > 256 µg/mL
- MIC (E. Coli): > 256 µg/mL

SMILES: CC(C)CCCC(C)[C@H]1CCC2C3C(CC[C@@]21C)[C@@]1(C)CC[C@@H](NCCCNCCCCN)C[C@@H]1C[C@H]3O (stereo partly drawn) [drawing 86]
- Minimum Effective Concentration, chick embryo diss. assay (chick embryo): > 10 µg
- minimal effective concentration (HM): 4 µg/mL

SMILES: CC(C)CCC[C@@H](C)[C@H]1CC[C@H]2[C@@H]3CC[C@H]4C[C@@H](NCCCCN)CC[C@]4(C)[C@H]3CC[C@]12C
- MIC (S. aureus): 16 µg/mL (≈ 34.9 µM)
- MIC (C. albicans): > 256 µg/mL
- MIC (P.): > 256 µg/mL
- MIC (E. Coli): > 256 µg/mL

SMILES: CC(C)[C@@H](CC[C@@H](C)[C@H]1CC[C@H]2[C@@H]3[C@H](O)C[C@H]4C[C@@H](NCCCNCCCCN)CC[C@]4(C)[C@H]3CC[C@]12C)OS(=O)(=O)O [drawing 116]
- minimal effective concentration (HM): 7.8 µg/mL

SMILES: CC(CCC(=O)O)[C@H]1CCC2C3C(CC[C@@]21C)[C@@]1(C)CC[C@@H](NCCCNCCCCNCCCN)C[C@H]1C[C@H]3O (stereo partly drawn) [drawing 110]
- minimal effective concentration [1]: > 10 µg/mL
- minimal effective concentration (HM): 18.1 µg/mL

SMILES: COC(=O)CCC(C)[C@H]1CCC2C3C(CC[C@@]21C)[C@@]1(C)CC[C@@H](NCCN)C[C@H]1C[C@H]3O (stereo partly drawn) [drawing 93]
- Minimum Effective Concentration, chick embryo diss. assay (chick embryo): 0.01 µg
- minimal effective concentration [1]: 10 µg/mL
- minimal effective concentration (HM): 2.6 µg/mL

SMILES: C[C@H](CCC(=O)O)[C@H]1CC[C@H]2[C@@H]3[C@H](O)C[C@@H]4C[C@@H](NCCN)CC[C@]4(C)[C@H]3CC[C@]12C [Compound 415]
- endothelial cord formation ([1]; 10.0 μg/ml): +/T
- activity in vitelline capillary regression assay ([2]; Table 5): especially active

SMILES: CC(CCC(=O)O)[C@H]1CCC2C3C(CC[C@@]21C)[C@@]1(C)CC[C@H](NCCCNCCCCNCCCN)C[C@H]1C[C@H]3O (stereo partly drawn)
- minimal effective concentration [1]: > 10 µg/mL

SMILES: COC(=O)CCC(C)[C@H]1CCC2C3C(CC[C@@]21C)[C@@]1(C)CC[C@H](NCCCNCCCCNCCCN)C[C@H]1C[C@H]3O (stereo partly drawn) [drawing 109]
- Minimum Effective Concentration, chick embryo diss. assay (chick embryo): > 1 µg
- minimal effective concentration [1]: 10 µg/mL

SMILES: CC(C)C(O)CC[C@@H](C)[C@H]1CC[C@H]2[C@@H]3[C@H](O)C[C@H]4C[C@@H](NCCCNCCCCN(C)C)CC[C@]4(C)[C@H]3CC[C@]12C (stereo partly drawn)
- MIC (P.): 129 µg/mL (≈ 224 µM)

SMILES: COC(=O)CCC(C)[C@H]1CCC2C3C(CC[C@@]21C)[C@@]1(C)CCC(NCCCNCCCCNCCCN)C[C@@H]1C[C@H]3O (stereo partly drawn)
- Minimum Effective Concentration, chick embryo diss. assay (chick embryo): > 10 µg

SMILES: C[C@H](CCC(=O)O)[C@H]1CC[C@H]2[C@@H]3[C@H](O)C[C@@H]4C[C@@H](NCCCNCCCCNCCCN)CC[C@]4(C)[C@H]3CC[C@]12C [Compound 413]
- endothelial cord formation ([1]; 0.1 μg/ml): -
- vascular reactivity ([2]; 1 μg applied): 0
- functional similarity in tadpole assay (Xenopus tadpoles; Xenopus tadpole assay): effects like those produced by compound 1436

SMILES: CC(C)[C@@H](CC[C@@H](C)[C@H]1CC[C@H]2[C@@H]3[C@H](O)C[C@H]4C[C@@H](NCCCNCCCCNCCCN)CC[C@]4(C)[C@H]3CC[C@]12C)OS(=O)(=O)O [drawing 119]
- minimal effective concentration (LLC): 16.7 µg/mL
- minimal effective concentration (HM): 6.9 µg/mL

SMILES: CC(C)CCC[C@@H](C)[C@H]1CC[C@H]2[C@@H]3CC[C@H]4C[C@H](NCCCNCCCCNCCCN)CC[C@]4(C)[C@H]3CC[C@]12C
- Minimum Effective Concentration, chick embryo diss. assay (chick embryo): > 10 µg

SMILES: CC(CCC(=O)O)[C@H]1CCC2C3CC[C@H]4C[C@@H](NCCCNCCCCN)CC[C@]4(C)C3CC[C@@]21C (stereo partly drawn)
- Minimum Effective Concentration, chick embryo diss. assay (chick embryo): 0.001 µg
- minimal effective concentration (HM): 13.8 µg/mL

SMILES: CC(C)CCCC(C)[C@H]1CCC2C3C(CC[C@@]21C)[C@@]1(C)CC[C@H](NCCCNCCCCN)C[C@@H]1C[C@H]3O (stereo partly drawn) [drawing 87]
- Minimum Effective Concentration, chick embryo diss. assay (chick embryo): 1.10 µg

SMILES: COC(=O)CCC(C)[C@H]1CCC2C3C[C@@H](O)[C@H]4C[C@H](NCCN)CC[C@]4(C)C3CC[C@@]21C (stereo partly drawn) [drawing 103]
- Minimum Effective Concentration, chick embryo diss. assay (chick embryo): > 1 µg

SMILES: CC(CCC(=O)O)[C@H]1CCC2C3CC[C@@H]4C[C@H](NCCN)CC[C@]4(C)C3C[C@H](O)[C@@]21C (stereo partly drawn) [drawing 115]
- Minimum Effective Concentration, chick embryo diss. assay (chick embryo): > 1 µg

SMILES: COC(=O)CC[C@@H](C)[C@H]1CC[C@H]2[C@@H]3[C@H](O)C[C@@H]4C[C@@H](NCCCNCCCCNCCCN)CC[C@]4(C)[C@H]3CC[C@]12C [Compound 411]
- vascular reactivity ([2]; 0.1 μg applied): 0

SMILES: CC(CCC(=O)O)[C@H]1CCC2C3CC[C@@H]4C[C@H](NCCCNCCCCNCCCN)CC[C@]4(C)C3C[C@H](O)[C@@]21C (stereo partly drawn) [drawing 107]
- Minimum Effective Concentration, chick embryo diss. assay (chick embryo): > 1 µg

SMILES: CC(CCC(=O)O)[C@H]1CCC2C3C(CC[C@@]21C)[C@@]1(C)CC[C@@H](NCCCNCCCCN)CC1C[C@H]3O (single isomer, unassigned)
- Minimum Effective Concentration, chick embryo diss. assay (chick embryo): 0.01 µg

SMILES: C[C@H](CCC(=O)O)[C@H]1CC[C@H]2[C@@H]3[C@H](O)C[C@H]4C[C@@H](NCCCNCCCCN)CC[C@]4(C)[C@H]3CC[C@]12C [Compound 381]
- vascular reactivity ([2]; 1 μg applied): 0

SMILES: N.N.[Cl][Pt][Cl] [Cisplatin, reference compound]
- hematological profile [3]: profound anemia by day 28

SMILES: COC(=O)CCC(C)[C@H]1CCC2C3CC[C@H]4C[C@H](NCCCNCCCCNCCCN)CC[C@]4(C)C3CC[C@@]21C (stereo partly drawn) [drawing 108]
- Minimum Effective Concentration, chick embryo diss. assay (chick embryo): > 1 µg
- minimal effective concentration (LLC): 6.8 µg/mL

SMILES: COC(=O)CCC(C)[C@H]1CCC2C3C(CC[C@@]21C)[C@@]1(C)CC[C@H](NCCN)C[C@H]1C[C@H]3O (stereo partly drawn) [drawing 92]
- Minimum Effective Concentration, chick embryo diss. assay (chick embryo): > 1 µg

SMILES: CC(CCC(=O)O)[C@H]1CCC2C3C(CC[C@@]21C)[C@@]1(C)CC[C@H](NCCN)C[C@H]1C[C@H]3O (stereo partly drawn) [drawing 113]
- minimal effective concentration [1]: > 10 µg/mL

SMILES: COC(=O)CCC(C)[C@H]1CCC2C3CC[C@H]4C[C@@H](NCCCNCCCCNCCCN)CC[C@]4(C)C3CC[C@@]21C (stereo partly drawn) [drawing 99]
- minimal effective concentration (HM): 5 µg/mL
